Source: patent publication US9175055B2, “Use of fibromodulin and lumican for increasing muscle mass” (ASSOCIATION FRANCAISE CONTRE LES MYOPATHIES, priority 2011, dated 2015)
Several values for one entry are separate records, joined by “and”; a condition that tells them apart may be missing. Equal values may be shown once.

Experiments:
[1] = target: T1, mature myostatin (Mus musculus, UniProt O08689); test: ELISA-type test of direct interaction of biotinylated fibromodulin peptides with coated myostatin; assay type: binding; conditions: FIG. 3
T1 sequence (O08689 268-376): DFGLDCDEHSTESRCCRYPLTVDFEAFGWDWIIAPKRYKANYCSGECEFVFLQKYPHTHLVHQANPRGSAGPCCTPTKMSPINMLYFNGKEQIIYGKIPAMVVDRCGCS
From the text: The ELISA test (Enzyme Linked ImmunoSorbent Assay) is a test for detecting and/or assaying a protein present in a biological fluid. In the technique known as “sandwich” assay, the wells of a microtiter plate are covered with a capture antibody capable of binding specifically to the desired antigen. During this operation called “coating”, the capture antibody binds to the plastic of the wells by electrostatic interaction. The capture antibody ensures the specificity of the test. The solution to be tested is then deposited into the wells of the microtiter plate and, if the desired antigen is present, it will bind specifically to the capture antibody. A second antibody, the tracer antibody, capable of binding to the captured antigen is then added to the wells, and the unbound tracer antibodies are eliminated by rinsing. The tracer antibody is coupled to an enzyme catalyzing the formation of a colored product.
The principle of this technique was used to study the direct interaction of the mature myostatin with the peptides 69-101 Fmod Biotin and 69-101 Fmod Biotin mutated (see sequences below). For this, 3 μl of myostatin at a concentration of 100 ng/μl are taken up in 50 μl of carbonate buffer and added to each well of the assay plate (R&D Systems DY990). After an overnight incubation at 4° C., the plate is washed with 100 μl of PBS-Tween (0.05% Tween 20), then the blocking step to saturate non-specific sites is carried out for 2 hours at room temperature with 100 μl of PBS and 6% of milk per well. Five successive washes with 200 μl of PBS-Tween (0.05% Tween 20) are performed and increasing amounts of biotinylated fibromodulin peptides are then deposited (100 μl final in PBS) and the plate is incubated for 1 hour at 37° C. For the positive control, an antibody of goat anti-myostatin (≠AF788, R&D Systems), which was deposited in the control wells and incubated for 1 hour at 1/100th (0.1 mg/ml) was […]. The wells were then washed 5 times with PBS-Tween (0.05% Tween 20). To detect binding of the biotinylated peptides to MSTN, streptavidin-HRP (≠N100, Pierce) was used at 1/20,000th. was added to the wells. For the controls points with the goat anti-myostatin antibody, an HRP-marked (≠ab6885, Abcam) polyclonal secondary donkey anti-goat antibody was added (at 1/4000th)). After five washes, adding the peroxidase substrate, the TMB Substrate Reagent Set (Tetramehylbenzidine, OptEIA, ≠555214) allows the obtention of a colored reaction proportional to the quantity of HRP present in the wells. The reaction is stopped after 20 minutes by addition of sulfuric acid 2N, and the plate is read at 450 nm on a Discovery HT-R spectrophotometer (Bio-TEK).
Buffer Composition: 0.1 M carbonate buffer: 4.2 g NaHCO3, 1.78 g of […] in 500 ml of H20 MilliQ, pH 9,5. Storage at 4° C.

[2] = system: mdx mice; test: Comparative muscle hypertrophy 18 days after intramuscular injection of peptides in dystrophic mdx mice; assay type: in vivo; conditions: for Hypertrophy %: 18 days after IM injection, average of five mdx mice, TAG versus TAD; for increase in muscular hypertrophy, factor compared to decorin: day 18, mdx mice
Method: (§1) Mdx mice (C57BL/10ScSn-DmD^max/J) from colonies maintained at Genethon. Mice aged at least six weeks were used. All experiments were performed in accordance with European ethical rules regarding the use of animals for experimental research.
(§2) Intramuscular injection is performed on animals anesthetized at the tibialis anterior muscle (TA). The injected volume was around 20-35 μl. The injection is performed in the middle of TA Left (TAG). An equal volume of NaCl 150 mM/15 μM ZnCl2 was systematically injected into the right anterior tibialis (TAD) to serve as a control. After a specified number of days after the injection, the TAD and TAG were taken after sacrificing the mice, which were weighed and frozen for histological studies.
(§3) The peptide fibromodulin (Fmod, SEQ ID NO: 2) and lumican (mLumican, SEQ ID NO: 5) were dissolved in water and stored at −80° C. For the injections, the preparation procedure is as follows: 24-40 hours before the injection, the desired quantity of peptide is removed from the stock solution and mixed with a solution of zinc chloride (ZnCl2) and 150 mM NaCl so as to have a final concentration of 15 μM of zinc. The peptide was stored at 4° C. until injection.
4/In vivo Comparative Study of Muscle Hypertrophy 18 Days after Injection of Dystrophic mdx Mice with Decorin Peptide (MdCN 31-71, SEQ ID NO: 75), Fibromodulin (mFmod 69-101) or lumican (mLum 30-62):
The TAD and TAG muscles were removed 18 days after injection of the peptides, and then weighed. The experiment was performed on five separate mice.

[3] = target: T2, recombinant murine myostatin (Mus musculus, UniProt O08689); test: Inhibition of myostatin activity, pGL3-(CAGA)12-Luc reporter in HEK293T cells; assay type: cell-based; conditions: 2.5 nM myostatin, FIG. 1 and 2
T2 sequence (O08689 268-376): T1 sequence (O08689 268-376)
From the text: The plasmidic construction pGL3-(CAGA)12-firefly luciferase (notated pGL3-(CAGA)12-Luc) obtained by MTA of the Pr. Carl-Henrik Heldin (Ludwig Institute for Cancer Research, Sweden) contains 12 CAGA copies of the consensus SBE (Smad Binding Element) consensus sequence and allows to indirectly measure the binding of myostatin to its receptor. Indeed, when myostatin binds to the receptor Activin IIb, the Smad 3 and 4 proteins are activated and will bind to the 12 CAGA copies. The promoter of the cassette pGL3-(CAGA)12-Luc is thus activated, which results in luciferase production. The myostatin/Activin IIb binding can be followed, therefore, by measuring the luciferase.
The ability of the peptides to inhibit the in vitro activity of the myostatin has been evaluated on embryonic human kidney cells 293T by means of the pGL3-(CAGA)12-Luc construction. For this, 350,000 293T cells were placed per well in a 24-well plate. After 24 hours of culture, the cells were transfected with a mixture of 8 μl de PEI (PEI 25 kDa; Sigma) and 2 μg of plasmide pGL3-(CAGA)12-Luc/well. […] Twenty-four hours after transfection, 2.5 nM of recombinant murine myostatin, mixed or not mixed with various quantities of fibromodulin or lumican peptides were added to each well. […] Twenty-four hours after incubation, the cells were lysed, then collected to be assayed for luciferase activity and the quantity of protein.

[4] = system: mdx mice; test: Muscle weight on D20 after intramuscular injection into Tibialis Anterior of mdx mice; assay type: in vivo; conditions: D20, individual mdx mice
Method: as §1, §2
as §3, with “injection. […]” for “injection.”
On D20, the mice were sacrificed and the weight of the TAG and TAD muscles was measured.

Substance	interaction with myostatin (absorbence at 450 nm) ([1]; in the presence of zinc)	Hypertrophy % [2]	increase in muscular hypertrophy, factor compared to decorin [2]	induction of the pCAGA-Luc promoter (inhibition of myostatin activity) [3]	further results
Biotine-PPPEPRDCPQEADAPPNFPTAMYADNRNLKYLP- CONH2 [mutated biotin mFmod peptide]	no interaction is visible	–	–	–	–
YGQISPNCAPECNCPHSYPTAMYCDDLKLKSVP (30-62 mouse lumican) [mLum 30-62, fragment corresponding to residues 30 to 62 of murin lumican]	–	37.26 ± 14.69%	3.7	net inhibition of the promoter in a dose-dependent manner	–
mDCN 31-71: Decorin Peptide (MdCN 31-71, SEQ ID NO: 75), comparator from prior art WO 2010/106295 (DEASGIIPYDPDNPLISMCPYRCQCHLRVVQCSDLGLDKVP; 31-71 mouse decorin fragment) [reference compound]	–	10.02 ± 8.3%	–	–	–
Biotine-PPPEPRDCPQECDCPPNFPTAMYCDNRNLKYLP-CONH2 [biotinylated mFmod 69-101]	direct interaction takes place	–	–	–	–
PPPEPRDCPQECDCPPNFPTAMYCDNRNLKYLP (69-101 mouse fibromodulin Fmod) [mFmod 69-101, fragment corresponding to residues 69-101 of murine fibromodulin]	–	29.34 ± 15.76%	2.9	net inhibition of the promoter in a dose-dependent manner	interaction with myostatin (absorbence at 450 nm) ([1]; in the absence of zinc): no interaction is seen; amount of peptide from which a plateau of absorbence is obtained ([1]; in the presence of zinc): ≥ 4.2 µg; Weight of injected muscle (TAG) ([4]; 50 μg peptide + 15 μM ZnCl2 IM in left Tibialis Anterior): 66.5 mg and 75.4 mg and 74.6 mg and 65.2 mg and 73.9 mg; Growth (TAG versus control TAD) ([4]; 50 μg peptide + 15 μM ZnCl2 IM): 22.24% and 5.31% and 19.94% and 5.33% and 12.31%
